In patent US10898475B2, “Bach1 inhibitors in combination with Nrf2 activators and pharmaceutical compositions thereof” (vTv Therapeutics LLC, priority 2014, dated 2021):

Test system: HMOX1 in Normal Human Lung Fibroblasts (NHLF)
Assay: HMOX1 Protein Expression (immunostaining, fold induction or % positive cells over DMSO)
Conditions: for Hill slope of DMF dose response curves in Table 2: % Positive HMOX
Experimental: Normal Human Lung Fibroblasts (NHLF) obtained from Lonza were cultured in T-225 flasks using conditions recommended by the vendor (FGM-2 medium supplemented with 2% fetal bovine serum (FBS), fibroblast growth factor (hFGF-B) 0.5 mL, insulin 0.5 mL, and gentamicin/amphotericin-B 0.5 mL at 37° C. in a humidified atmosphere of 5% CO2).
For assays, cell were thawed and placed into culture in T225 flasks, grown to be 80% confluent, and harvested as described by the vendor. NHLF cells (2.5×10^4 cells per well) were plated in 384 well optilux tissue culture (BD) plates and incubated overnight in media prior to exposure to compound. Cells were incubated with DMSO or various combinations of either an Nrf2 Activator (DMF (dimethyl fumarate)/CDDO-Me) or a Bach1 Inhibitor for 16-18 hr. Cells were then fixed and permeabilized prior to incubation with HMOX1 antibody (abcam; 1:300 dilution in 1% BSA in PBS) for 1 hour. Cells were then washed and incubated with a solution of fluorescently-coupled goat anti-mouse antibody (Alexa 488 1:400 dilution Invitrogen) and Hoechst nuclear stain (1:2000; Invitrogen) in PBS containing 1% BSA for 1 hr. Immunostaining was detected using a GE InCell 2000 instrument at the following wavelengths: Hoechst Ex/Em 360/535 and Alexa 488 Ex/Em 480/535. Results were analyzed using GE InCell Analyzer software and represented as the increase fold of HMOX1 induction (Fold induction/FI) or the percentage of HMOX1 positive (% positive) cells over DMSO.

Compound: CN(C)C(=O)CNC(=O)c1ccc2c(c1)nc(Nc1nc3ccc(C(F)(F)F)cc3s1)n2C [HPP-C, 1-Methyl-2-(6-trifluoromethyl-benzothiazol-2-ylamino)-1H-benzimidazole-5-carboxylic acid dimethylcarbamoylmethyl-amide]
- Hill slope of DMF dose response curves in Table 2 (Bach1 Inhibitor Conc. 0.019 uM): 2.00
- Hill slope of DMF dose response curves in Table 2 (Bach1 Inhibitor Conc. 0.039 uM): 1.80
- Hill slope of DMF dose response curves in Table 2 (Bach1 Inhibitor Conc. 0.078 uM): 1.79
- Hill slope of DMF dose response curves in Table 2 (Bach1 Inhibitor Conc. 0.156 uM): 0.83
- % Cells Positive HMOX (Cpd. 0.019 uM, DMF 0 uM): 3.60%
- Fold Induction of HMOX (Cpd. 0.019 uM, DMF 0 uM): 1.29 fold
- % Cells Positive HMOX (Cpd. 0.019 uM, DMF 0.03 uM): 1.18%
- Fold Induction of HMOX (Cpd. 0.019 uM, DMF 0.03 uM): 1.10 fold
- % Cells Positive HMOX (Cpd. 0.019 uM, DMF 0.1 uM): 2.37%
- Fold Induction of HMOX (Cpd. 0.019 uM, DMF 0.1 uM): 1.15 fold
- % Cells Positive HMOX (Cpd. 0.019 uM, DMF 0.3 uM): 6.49%
- Fold Induction of HMOX (Cpd. 0.019 uM, DMF 0.3 uM): 1.24 fold
- % Cells Positive HMOX (Cpd. 0.019 uM, DMF 1 uM): 10.18%
- Fold Induction of HMOX (Cpd. 0.019 uM, DMF 1 uM): 1.68 fold
- % Cells Positive HMOX (Cpd. 0.019 uM, DMF 3 uM): 51.54%
- Fold Induction of HMOX (Cpd. 0.019 uM, DMF 3 uM): 2.86 fold
- % Cells Positive HMOX (Cpd. 0.019 uM, DMF 10 uM): 94.22%
- Fold Induction of HMOX (Cpd. 0.019 uM, DMF 10 uM): 5.75 fold
- % Cells Positive HMOX (Cpd. 0.019 uM, DMF 30 uM): 84.20%
- Fold Induction of HMOX (Cpd. 0.019 uM, DMF 30 uM): 4.65 fold
- % Cells Positive HMOX (Cpd. 0.039 uM, DMF 0 uM): 2.31%
- Fold Induction of HMOX (Cpd. 0.039 uM, DMF 0 uM): 1.37 fold
- % Cells Positive HMOX (Cpd. 0.039 uM, DMF 0.03 uM): 5.74%
- Fold Induction of HMOX (Cpd. 0.039 uM, DMF 0.03 uM): 1.28 fold
- % Cells Positive HMOX (Cpd. 0.039 uM, DMF 0.1 uM): 6.82%
- Fold Induction of HMOX (Cpd. 0.039 uM, DMF 0.1 uM): 1.35 fold
- % Cells Positive HMOX (Cpd. 0.039 uM, DMF 0.3 uM): 12.76%
- Fold Induction of HMOX (Cpd. 0.039 uM, DMF 0.3 uM): 1.61 fold
- % Cells Positive HMOX (Cpd. 0.039 uM, DMF 1 uM): 23.54%
- Fold Induction of HMOX (Cpd. 0.039 uM, DMF 1 uM): 2.10 fold
- % Cells Positive HMOX (Cpd. 0.039 uM, DMF 3 uM): 68.03%
- Fold Induction of HMOX (Cpd. 0.039 uM, DMF 3 uM): 3.01 fold
- % Cells Positive HMOX (Cpd. 0.039 uM, DMF 10 uM): 94.66%
- Fold Induction of HMOX (Cpd. 0.039 uM, DMF 10 uM): 5.13 fold
- % Cells Positive HMOX (Cpd. 0.039 uM, DMF 30 uM): 90.40%
- Fold Induction of HMOX (Cpd. 0.039 uM, DMF 30 uM): 4.90 fold
- % Cells Positive HMOX (Cpd. 0.078 uM, DMF 0 uM): 7.12%
- Fold Induction of HMOX (Cpd. 0.078 uM, DMF 0 uM): 1.59 fold
- % Cells Positive HMOX (Cpd. 0.078 uM, DMF 0.03 uM): 5.99%
- Fold Induction of HMOX (Cpd. 0.078 uM, DMF 0.03 uM): 1.37 fold
- % Cells Positive HMOX (Cpd. 0.078 uM, DMF 0.1 uM): 8.24%
- Fold Induction of HMOX (Cpd. 0.078 uM, DMF 0.1 uM): 1.48 fold
- % Cells Positive HMOX (Cpd. 0.078 uM, DMF 0.3 uM): 16.20%
- Fold Induction of HMOX (Cpd. 0.078 uM, DMF 0.3 uM): 1.73 fold
- % Cells Positive HMOX (Cpd. 0.078 uM, DMF 1 uM): 37.74%
- Fold Induction of HMOX (Cpd. 0.078 uM, DMF 1 uM): 2.53 fold
- % Cells Positive HMOX (Cpd. 0.078 uM, DMF 3 uM): 81.81%
- Fold Induction of HMOX (Cpd. 0.078 uM, DMF 3 uM): 4.33 fold
- % Cells Positive HMOX (Cpd. 0.078 uM, DMF 10 uM): 97.16%
- Fold Induction of HMOX (Cpd. 0.078 uM, DMF 10 uM): 6.46 fold
- % Cells Positive HMOX (Cpd. 0.078 uM, DMF 30 uM): 96.15%
- Fold Induction of HMOX (Cpd. 0.078 uM, DMF 30 uM): 6.18 fold
- % Cells Positive HMOX (Cpd. 0.156 uM, DMF 0 uM): 28.56%
- Fold Induction of HMOX (Cpd. 0.156 uM, DMF 0 uM): 2.66 fold
- % Cells Positive HMOX (Cpd. 0.156 uM, DMF 0.03 uM): 22.08%
- Fold Induction of HMOX (Cpd. 0.156 uM, DMF 0.03 uM): 1.99 fold
- % Cells Positive HMOX (Cpd. 0.156 uM, DMF 0.1 uM): 33.12%
- Fold Induction of HMOX (Cpd. 0.156 uM, DMF 0.1 uM): 2.54 fold
- % Cells Positive HMOX (Cpd. 0.156 uM, DMF 0.3 uM): 49.95%
- Fold Induction of HMOX (Cpd. 0.156 uM, DMF 0.3 uM): 3.06 fold
- % Cells Positive HMOX (Cpd. 0.156 uM, DMF 1 uM): 66.67%
- Fold Induction of HMOX (Cpd. 0.156 uM, DMF 1 uM): 4.08 fold
- % Cells Positive HMOX (Cpd. 0.156 uM, DMF 3 uM): 88.98%
- Fold Induction of HMOX (Cpd. 0.156 uM, DMF 3 uM): 4.57 fold
- % Cells Positive HMOX (Cpd. 0.156 uM, DMF 10 uM): 100.00%
- Fold Induction of HMOX (Cpd. 0.156 uM, DMF 10 uM): 6.55 fold
- % Cells Positive HMOX (Cpd. 0.156 uM, DMF 30 uM): 84.03%
- Fold Induction of HMOX (Cpd. 0.156 uM, DMF 30 uM): 5.49 fold
- combination effect in terms of the % HMOX positive cells (combination with DMF at concentrations below their maximum effect (Table 2)): additive or greater than additive
- change of Hill slope of the DMF dose response curve (FIG. 5) (upon increasing amounts of the Bach1 Inhibitor): reduced
